Results as given in paper PMC5762315, “Inhibition of polo-like kinase 4 (PLK4): a new therapeutic option for rhabdoid tumors and pediatric medulloblastoma” (Oncotarget, 2017).
“And” between values parts separate entries of the source, which are not always exact repeats. Identical values can stand only once.

Key:
Assay in all cases: biochemical
Type in all cases: biochemical
various kinases [1] = biological target: various kinases (Homo sapiens, UniProt Q9H422); details: HIPK3 (YAK1)
various kinases [2] = biological target: various kinases (Homo sapiens, UniProt P49840); details: GSK3A (GSK3 alpha)
various kinases (Homo sapiens, UniProt P49840), sequence (P49840 whole entry): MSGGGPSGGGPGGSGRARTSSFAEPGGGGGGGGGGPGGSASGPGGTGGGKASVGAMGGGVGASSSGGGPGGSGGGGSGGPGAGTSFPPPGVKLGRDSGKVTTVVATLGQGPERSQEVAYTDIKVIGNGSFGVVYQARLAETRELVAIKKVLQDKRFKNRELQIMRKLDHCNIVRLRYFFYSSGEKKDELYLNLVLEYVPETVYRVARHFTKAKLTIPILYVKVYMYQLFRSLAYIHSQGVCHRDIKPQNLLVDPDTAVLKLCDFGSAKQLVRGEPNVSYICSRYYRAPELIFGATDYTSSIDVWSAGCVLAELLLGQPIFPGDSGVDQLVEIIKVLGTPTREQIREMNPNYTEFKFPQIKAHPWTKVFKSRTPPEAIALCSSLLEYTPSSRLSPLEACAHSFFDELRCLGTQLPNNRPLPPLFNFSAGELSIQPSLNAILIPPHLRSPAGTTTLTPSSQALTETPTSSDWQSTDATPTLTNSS

various kinases [3] = biological target: various kinases (Homo sapiens, UniProt P36888, D835Y); details: FLT3 D835Y
various kinases [4] = biological target: various kinases (Homo sapiens, UniProt O96017); details: CHEK2 (CHK2)
various kinases [5] = biological target: various kinases (Homo sapiens, UniProt P54753); details: EPHB3
various kinases (Homo sapiens, UniProt P54753), sequence (P54753 34-998): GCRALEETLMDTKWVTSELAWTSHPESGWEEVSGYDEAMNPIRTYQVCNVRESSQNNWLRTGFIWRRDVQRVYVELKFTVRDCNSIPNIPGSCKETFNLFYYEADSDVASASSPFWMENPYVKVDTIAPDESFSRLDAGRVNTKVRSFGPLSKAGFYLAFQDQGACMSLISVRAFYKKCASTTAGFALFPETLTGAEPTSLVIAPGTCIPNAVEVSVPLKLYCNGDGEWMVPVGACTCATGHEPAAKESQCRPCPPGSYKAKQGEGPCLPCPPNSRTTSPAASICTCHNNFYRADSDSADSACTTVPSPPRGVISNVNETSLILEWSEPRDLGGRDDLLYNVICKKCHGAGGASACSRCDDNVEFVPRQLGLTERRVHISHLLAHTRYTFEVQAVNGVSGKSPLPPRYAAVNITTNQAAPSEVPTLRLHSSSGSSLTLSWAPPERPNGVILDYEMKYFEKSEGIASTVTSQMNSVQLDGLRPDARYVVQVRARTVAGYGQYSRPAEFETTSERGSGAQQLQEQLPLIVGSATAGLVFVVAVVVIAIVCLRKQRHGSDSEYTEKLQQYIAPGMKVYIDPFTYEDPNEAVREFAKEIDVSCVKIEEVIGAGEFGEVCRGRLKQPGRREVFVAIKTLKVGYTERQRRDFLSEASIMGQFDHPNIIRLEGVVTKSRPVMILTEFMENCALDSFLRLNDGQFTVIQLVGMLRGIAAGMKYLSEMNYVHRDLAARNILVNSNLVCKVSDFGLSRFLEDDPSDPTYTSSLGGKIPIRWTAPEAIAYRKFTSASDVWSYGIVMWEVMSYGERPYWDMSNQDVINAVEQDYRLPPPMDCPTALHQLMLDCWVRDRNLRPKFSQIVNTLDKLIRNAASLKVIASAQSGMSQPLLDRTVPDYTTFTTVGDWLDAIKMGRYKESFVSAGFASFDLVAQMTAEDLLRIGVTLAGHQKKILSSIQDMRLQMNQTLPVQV

various kinases [6] = biological target: various kinases (Homo sapiens, UniProt P28482); details: MAPK1 (ERK2)
various kinases [7] = biological target: various kinases (Homo sapiens, UniProt Q9UM73); details: ALK
various kinases [8] = biological target: various kinases (Homo sapiens, UniProt Q96RG2); details: PASK
various kinases [9] = biological target: various kinases (Homo sapiens, UniProt P45984); details: MAPK9 (JNK2)
various kinases (Homo sapiens, UniProt P45984), sequence (P45984 whole entry): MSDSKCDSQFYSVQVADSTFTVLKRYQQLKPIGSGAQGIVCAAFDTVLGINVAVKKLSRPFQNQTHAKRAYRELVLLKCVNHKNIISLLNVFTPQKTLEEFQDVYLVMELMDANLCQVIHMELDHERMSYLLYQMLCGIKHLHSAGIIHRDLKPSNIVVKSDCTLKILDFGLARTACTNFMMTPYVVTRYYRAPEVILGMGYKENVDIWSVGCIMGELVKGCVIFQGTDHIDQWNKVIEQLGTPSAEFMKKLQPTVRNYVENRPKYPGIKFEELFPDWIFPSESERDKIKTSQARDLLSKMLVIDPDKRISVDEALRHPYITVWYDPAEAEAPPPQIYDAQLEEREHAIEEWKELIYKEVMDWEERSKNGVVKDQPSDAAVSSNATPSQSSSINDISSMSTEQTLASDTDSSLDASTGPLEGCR

various kinases [10] = biological target: various kinases (Homo sapiens, UniProt P31749); details: AKT1 (PKB alpha)
various kinases [11] = biological target: various kinases (Homo sapiens, UniProt P36507); details: MAP2K2 (MEK2)
various kinases [12] = biological target: various kinases (Homo sapiens, UniProt Q9P286); details: PAK7 (KIAA1264)
various kinases [13] = biological target: various kinases (Homo sapiens, UniProt P00533, G719C); details: EGFR (ErbB1) G719C
various kinases [14] = biological target: various kinases (Homo sapiens, UniProt Q15418); details: kinase RPS6KA1 (RSK1); ZLYTE
various kinases (Homo sapiens, UniProt Q15418), sequence (Q15418 whole entry): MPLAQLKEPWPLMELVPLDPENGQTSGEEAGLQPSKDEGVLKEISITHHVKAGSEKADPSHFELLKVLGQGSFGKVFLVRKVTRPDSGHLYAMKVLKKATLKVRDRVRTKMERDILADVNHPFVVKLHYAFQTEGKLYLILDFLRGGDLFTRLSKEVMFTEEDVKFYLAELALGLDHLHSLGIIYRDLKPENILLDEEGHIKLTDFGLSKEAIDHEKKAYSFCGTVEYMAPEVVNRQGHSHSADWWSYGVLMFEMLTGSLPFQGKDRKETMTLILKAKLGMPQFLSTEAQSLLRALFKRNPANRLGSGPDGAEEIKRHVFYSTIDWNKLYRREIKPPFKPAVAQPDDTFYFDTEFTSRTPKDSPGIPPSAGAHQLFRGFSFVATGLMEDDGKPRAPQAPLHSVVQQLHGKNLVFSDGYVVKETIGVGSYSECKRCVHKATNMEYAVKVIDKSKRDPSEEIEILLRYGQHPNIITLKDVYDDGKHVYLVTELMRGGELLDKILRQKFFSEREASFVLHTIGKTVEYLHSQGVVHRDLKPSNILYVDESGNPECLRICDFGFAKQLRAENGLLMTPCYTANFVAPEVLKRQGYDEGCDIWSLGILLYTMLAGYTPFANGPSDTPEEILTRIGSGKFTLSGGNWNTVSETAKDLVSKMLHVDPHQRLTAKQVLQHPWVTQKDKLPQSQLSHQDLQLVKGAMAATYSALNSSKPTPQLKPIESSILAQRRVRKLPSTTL

various kinases [15] = biological target: various kinases (Homo sapiens, UniProt P06493); details: CDK1/cyclin B
various kinases (Homo sapiens, UniProt P06493), sequence (P06493 whole entry): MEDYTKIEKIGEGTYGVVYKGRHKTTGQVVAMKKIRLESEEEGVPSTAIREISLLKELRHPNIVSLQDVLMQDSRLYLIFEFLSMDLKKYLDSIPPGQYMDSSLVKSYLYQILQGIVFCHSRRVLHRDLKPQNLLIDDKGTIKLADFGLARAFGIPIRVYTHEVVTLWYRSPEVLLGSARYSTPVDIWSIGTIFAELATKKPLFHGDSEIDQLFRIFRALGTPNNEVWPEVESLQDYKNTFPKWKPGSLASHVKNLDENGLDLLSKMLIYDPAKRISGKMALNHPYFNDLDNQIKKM

various kinases [16] = biological target: various kinases (Homo sapiens, UniProt Q8N752); details: CSNK1A1L
various kinases [17] = biological target: various kinases (Homo sapiens, UniProt P78527); details: DNA-PK
various kinases [18] = biological target: various kinases (Homo sapiens, UniProt P51813); details: BMX
various kinases [19] = biological target: various kinases (Homo sapiens, UniProt P35626); details: ADRBK2 (GRK3)
various kinases [20] = biological target: various kinases (Homo sapiens, UniProt Q12866); details: MERTK (cMER)
various kinases [21] = biological target: various kinases (Homo sapiens, UniProt Q96PY6); details: NEK1
various kinases [22] = biological target: various kinases (Homo sapiens, UniProt Q8IW41); details: MAPKAPK5 (PRAK)
various kinases [23] = biological target: various kinases (Homo sapiens, UniProt P17948); details: FLT1 (VEGFR1)
various kinases [24] = biological target: various kinases (Homo sapiens, UniProt P00533, C797S/L858R/T790M); details: EGFR (ErbB1) T790M C797S L858R
various kinases [25] = biological target: various kinases (Homo sapiens, UniProt O75582); details: kinase RPS6KA5 (MSK1); ZLYTE
various kinases (Homo sapiens, UniProt O75582), sequence (O75582 whole entry): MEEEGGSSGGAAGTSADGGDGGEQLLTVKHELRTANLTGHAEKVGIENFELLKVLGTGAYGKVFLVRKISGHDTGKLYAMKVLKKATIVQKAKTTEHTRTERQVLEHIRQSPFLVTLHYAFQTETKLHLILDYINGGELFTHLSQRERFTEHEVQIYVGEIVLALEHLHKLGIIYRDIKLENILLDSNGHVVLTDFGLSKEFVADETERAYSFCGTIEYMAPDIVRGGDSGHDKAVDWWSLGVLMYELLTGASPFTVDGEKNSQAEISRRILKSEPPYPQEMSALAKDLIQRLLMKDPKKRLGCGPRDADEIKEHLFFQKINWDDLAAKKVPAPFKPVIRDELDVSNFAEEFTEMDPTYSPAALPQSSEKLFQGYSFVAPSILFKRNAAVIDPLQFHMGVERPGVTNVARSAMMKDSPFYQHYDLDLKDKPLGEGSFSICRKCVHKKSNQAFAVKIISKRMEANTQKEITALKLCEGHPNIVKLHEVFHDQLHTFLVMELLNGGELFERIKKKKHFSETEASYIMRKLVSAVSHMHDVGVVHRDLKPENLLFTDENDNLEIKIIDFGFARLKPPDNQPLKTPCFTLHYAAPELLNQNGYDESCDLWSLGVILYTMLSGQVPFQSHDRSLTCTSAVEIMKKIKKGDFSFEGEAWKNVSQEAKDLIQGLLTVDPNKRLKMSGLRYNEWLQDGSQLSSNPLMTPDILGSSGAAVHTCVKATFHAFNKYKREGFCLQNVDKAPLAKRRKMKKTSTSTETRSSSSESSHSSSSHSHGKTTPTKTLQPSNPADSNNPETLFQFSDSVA

various kinases [26] = biological target: various kinases (Homo sapiens, UniProt Q13164); details: MAPK7 (ERK5)
various kinases [27] = biological target: various kinases (Homo sapiens, UniProt Q9UK32); details: kinase RPS6KA6 (RSK4); ZLYTE
various kinases (Homo sapiens, UniProt Q9UK32), sequence (Q9UK32 whole entry): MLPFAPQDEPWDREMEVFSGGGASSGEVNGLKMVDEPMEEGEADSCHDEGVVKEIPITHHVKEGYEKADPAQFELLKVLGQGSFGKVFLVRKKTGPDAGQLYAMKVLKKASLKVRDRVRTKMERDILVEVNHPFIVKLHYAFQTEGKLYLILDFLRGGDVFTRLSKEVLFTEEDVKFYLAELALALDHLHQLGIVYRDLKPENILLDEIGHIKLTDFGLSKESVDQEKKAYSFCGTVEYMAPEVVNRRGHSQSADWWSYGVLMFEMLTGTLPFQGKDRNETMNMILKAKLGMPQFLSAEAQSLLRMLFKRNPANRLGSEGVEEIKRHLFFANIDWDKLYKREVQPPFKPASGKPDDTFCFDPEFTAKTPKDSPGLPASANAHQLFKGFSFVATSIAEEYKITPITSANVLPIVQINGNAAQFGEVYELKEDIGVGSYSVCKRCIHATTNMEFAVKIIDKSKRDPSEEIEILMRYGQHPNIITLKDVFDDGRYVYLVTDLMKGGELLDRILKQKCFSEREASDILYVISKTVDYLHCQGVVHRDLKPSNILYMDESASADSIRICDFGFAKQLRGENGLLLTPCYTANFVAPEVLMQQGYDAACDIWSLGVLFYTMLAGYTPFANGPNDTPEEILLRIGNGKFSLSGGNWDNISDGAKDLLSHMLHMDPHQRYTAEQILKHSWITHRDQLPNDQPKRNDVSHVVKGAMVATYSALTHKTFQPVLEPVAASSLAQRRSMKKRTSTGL

various kinases [28] = biological target: various kinases (Homo sapiens, UniProt P54764); details: EPHA4
various kinases [29] = biological target: various kinases (Homo sapiens, UniProt P09769); details: FGR
various kinases [30] = biological target: various kinases (Homo sapiens, UniProt Q13131)
various kinases (Homo sapiens, UniProt Q13131), sequence (Q13131 whole entry): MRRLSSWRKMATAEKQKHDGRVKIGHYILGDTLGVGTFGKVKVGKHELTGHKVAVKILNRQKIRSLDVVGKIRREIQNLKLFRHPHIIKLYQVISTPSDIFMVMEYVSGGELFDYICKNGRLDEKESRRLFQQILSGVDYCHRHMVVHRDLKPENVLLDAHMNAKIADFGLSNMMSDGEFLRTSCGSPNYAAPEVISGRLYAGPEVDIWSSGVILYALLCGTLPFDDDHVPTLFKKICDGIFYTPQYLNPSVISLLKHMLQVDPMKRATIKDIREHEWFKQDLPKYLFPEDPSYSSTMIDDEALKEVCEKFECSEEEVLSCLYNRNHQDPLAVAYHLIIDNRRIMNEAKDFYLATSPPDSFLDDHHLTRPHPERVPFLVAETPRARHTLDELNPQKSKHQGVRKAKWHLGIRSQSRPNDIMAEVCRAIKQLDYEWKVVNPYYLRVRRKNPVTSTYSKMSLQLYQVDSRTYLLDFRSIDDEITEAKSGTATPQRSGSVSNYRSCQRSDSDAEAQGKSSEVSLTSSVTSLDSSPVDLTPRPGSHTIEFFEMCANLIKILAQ

various kinases [31] = biological target: T1, various kinases (Homo sapiens, UniProt O00141); details: kinase SGK (SGK1); ZLYTE
T1 sequence (O00141 1-431): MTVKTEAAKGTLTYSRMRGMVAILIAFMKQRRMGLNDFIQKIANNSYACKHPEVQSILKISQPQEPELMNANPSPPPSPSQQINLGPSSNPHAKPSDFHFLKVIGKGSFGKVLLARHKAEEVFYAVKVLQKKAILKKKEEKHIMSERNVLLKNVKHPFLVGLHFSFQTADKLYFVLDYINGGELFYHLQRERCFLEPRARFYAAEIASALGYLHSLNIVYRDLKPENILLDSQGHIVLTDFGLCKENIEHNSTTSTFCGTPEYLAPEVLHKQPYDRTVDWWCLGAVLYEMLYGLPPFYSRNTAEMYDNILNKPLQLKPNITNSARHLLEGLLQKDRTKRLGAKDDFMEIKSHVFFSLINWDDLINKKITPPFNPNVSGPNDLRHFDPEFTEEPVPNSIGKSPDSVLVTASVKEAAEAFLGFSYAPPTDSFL

various kinases [32] = biological target: various kinases (Homo sapiens, UniProt Q13177); details: PAK2 (PAK65)

## COc1ccc2c(c1)[C@]1(C[C@H]1c1ccc3c(/C=C/c4ccc(CN5C[C@@H](C)O[C@@H](C)C5)cc4)n[nH]c3c1)C(=O)N2 [CFI-400945]
Various kinases [1]
  % Inhibition: 2% and 3%
Various kinases [2]
  % Inhibition: 3% and 4%
Various kinases [3]
  % Inhibition: 27% and 29%
Various kinases [4]
  % Inhibition: 3% and 2%
Various kinases [5]
  % Inhibition: 3% and 2%
Various kinases [6]
  % Inhibition: 9% and 7%
Various kinases [7]
  % Inhibition: 51%
Various kinases [8]
  % Inhibition: 7% and 2%
Various kinases [9]
  % Inhibition: 9% and -1%
Various kinases [10]
  % Inhibition: 4% and 3%
Various kinases [11]
  % Inhibition: 7%
Various kinases [12]
  % Inhibition: 9% and 13%
Various kinases [13]
  % Inhibition: 3% and 2%
Various kinases [14]
  % Inhibition Average: 7%
  % Inhibition Duplicate #1: 7%
  % Inhibition Duplicate #2: 6%
Various kinases [15]
  % Inhibition: 16% and 12%
Various kinases [16]
  % Inhibition: 2% and 1%
Various kinases [17]
  % Inhibition: 3% and 1%
Various kinases [18]
  % Inhibition: 52% and 54%
Various kinases [19]
  % Inhibition: 4% and 7%
Various kinases [20]
  % Inhibition: -2% and 1%
Various kinases [21]
  % Inhibition: 7% and 2%
Various kinases [22]
  % Inhibition: 2% and 4%
Various kinases [23]
  % Inhibition: 0% and 1%
Various kinases [24]
  % Inhibition: 8% and 5%
Various kinases [25]
  % Inhibition Average: 3%
  % Inhibition Duplicate #1: 2%
  % Inhibition Duplicate #2: 4%
Various kinases [26]
  % Inhibition: -2% and 0%
Various kinases [27]
  % Inhibition Average: 4%
  % Inhibition Duplicate #1: 6%
  % Inhibition Duplicate #2: 3%
Various kinases [28]
  % Inhibition: 13% and 8%
Various kinases [29]
  % Inhibition: 28% and 26%
Various kinases [30]; AMPK (A1/B2/G2)
  % Inhibition: 25% and 20%
Various kinases [30]; AMPK (A1/B2/G3)
  % Inhibition: 13% and 21%
Various kinases [30]; AMPK A1/B1/G1
  % Inhibition: 14% and 9%
Various kinases [31]
  % Inhibition Average: 8%
  % Inhibition Duplicate #1: 9%
  % Inhibition Duplicate #2: 7%
Various kinases [32]
  % Inhibition: 17% and 8%
